Data taken from ChEMBL document CHEMBL1129361, “Modulators of leukotriene biosynthesis and receptor activation” (J Med Chem, 1996).
pIC50, pKi: −log10 of the molar value.

What was measured:
[1] = test system: Homo sapiens; assay: Fold shift in LTD4 dose response curve 24 hr following 450 mg oral dose; format: functional
[2] = species: Homo sapiens; assay: Fold shift in LTD4 dose response curve 3-5 hr after 5 days 450 mg bid; format: functional
[3] = species: Homo sapiens; assay: Fold shift in LTD4 dose response curve […] after 5 days of 450 mg bid; format: functional
[4] = species: Cavia porcellus; assay: Compound was tested in vitro for inhibitory activity against guinea pig neutrophil aggregation; format: functional
[5] = species: Homo sapiens; assay: Compound was tested in vitro for inhibitory activity against human neutrophil aggregation.; format: functional
[6] = species: Homo sapiens; assay: Compound was tested in vitro for inhibitory activity against human neutrophil chemotaxis.; format: functional
[7] = test system: Oryctolagus cuniculus; assay: Compound was tested in vivo inhibitory activity against LTB4 induced neutropenia in rabbit (intravenous); format: functional
[8] = test system: Cavia porcellus; assay: Compound was tested in vivo for LTB4 induced bronchoconstriction in guinea pig (2 hr pretreatment).; format: functional
[9] = test system: Cavia porcellus; assay: Compound was tested in vivo inhibitory activity against LTB4 induced bronchoconstriction in guinea pig(orally) (20 hr pretreatment); format: functional; details: po
[10] = test system: Cavia porcellus; assay: Compound was tested in vivo inhibitory activity against LTB4 induced bronchoconstriction (intravenous); format: functional
[11] = test system: Cavia porcellus; assay: Compound was tested in vivo inhibitory activity against LTB4 induced bronchoconstriction (orally); format: functional; details: po
[12] = species: Homo sapiens; assay: Compound was tested in vitro inhibitory activity against LTB4 induced Ca mobilization; format: functional
[13] = molecular target: T1, Leukotriene B4 receptor 1 (Homo sapiens, UniProt Q15722); assay: Compound was tested for inhibitory activity against human neutrophil LTB4 receptor binding
T1 sequence (Q15722 whole entry): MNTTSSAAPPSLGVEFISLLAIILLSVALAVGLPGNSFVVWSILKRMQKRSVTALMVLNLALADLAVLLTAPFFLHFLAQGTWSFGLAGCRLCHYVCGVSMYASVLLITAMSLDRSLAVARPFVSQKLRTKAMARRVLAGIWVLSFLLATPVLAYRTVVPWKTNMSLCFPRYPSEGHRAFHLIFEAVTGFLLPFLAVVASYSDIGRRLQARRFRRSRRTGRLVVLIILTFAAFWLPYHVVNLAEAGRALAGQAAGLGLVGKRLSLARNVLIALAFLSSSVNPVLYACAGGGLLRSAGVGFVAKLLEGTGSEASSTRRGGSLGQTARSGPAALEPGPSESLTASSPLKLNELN

[14] = species: Homo sapiens; assay: Compound was tested in vitro inhibitory activity against human neutrophil CD11b/CD18.; format: functional
[15] = species: Homo sapiens; assay: Compound was tested in vitro inhibitory activity against […] induced CD11 up-regulation.; format: functional, organism-based
[16] = species: Homo sapiens; assay: Compound was tested in vitro inhibitory activity against […] induced Ca mobilization.; format: functional, organism-based
[17] = species: Homo sapiens; assay: Compound was tested in vitro inhibitory activity against […] induced aggregation.; format: functional, organism-based
[18] = species: Homo sapiens; assay: Compound was tested in vitro inhibitory activity against […] induced chemotaxis; format: functional, organism-based
[19] = test system: Homo sapiens; assay: Compound was tested in vivo inhibitory activity against CD11b up-regulation at 4 hours in normal volunteers.; format: functional
[20] = molecular target: T1, Leukotriene B4 receptor 1; assay: Compound was tested for inhibitory activity against Leukotriene B4 receptor binding
[21] = test system: Mus musculus; assay: Compound was tested in vivo inhibitory activity against AA induced ear edema and MPO release (orally).; format: functional; details: po
[22] = test system: Mus musculus; assay: Compound was tested in vivo inhibitory activity against AA induced ear edema and MPO release.; format: functional
[23] = test system: Rattus norvegicus; assay: Compound was tested in vivo inhibitory activity against rat neutropenia at 4h.; format: functional
[24] = test system: Rattus norvegicus; assay: Compound was tested in vivo inhibitory activity against rat neutropenia at 18 h.; format: functional
[25] = molecular target: T2, Cysteinyl leukotriene receptor (Homo sapiens, UniProt Q9Y271+Q9NS75); assay: Binding affinity against Cysteinyl leukotriene D4 receptor; format: protein assay
T2 sequence (Q9Y271 whole entry): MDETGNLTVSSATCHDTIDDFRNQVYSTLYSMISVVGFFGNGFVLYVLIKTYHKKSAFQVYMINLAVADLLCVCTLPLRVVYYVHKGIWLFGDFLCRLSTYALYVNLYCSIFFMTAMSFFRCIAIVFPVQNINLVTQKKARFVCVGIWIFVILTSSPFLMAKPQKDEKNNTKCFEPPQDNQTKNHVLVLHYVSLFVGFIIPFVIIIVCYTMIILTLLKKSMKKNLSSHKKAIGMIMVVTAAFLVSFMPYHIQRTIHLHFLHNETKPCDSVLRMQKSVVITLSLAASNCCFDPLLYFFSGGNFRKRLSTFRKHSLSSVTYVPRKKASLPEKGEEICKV
T2 sequence (Q9NS75 whole entry): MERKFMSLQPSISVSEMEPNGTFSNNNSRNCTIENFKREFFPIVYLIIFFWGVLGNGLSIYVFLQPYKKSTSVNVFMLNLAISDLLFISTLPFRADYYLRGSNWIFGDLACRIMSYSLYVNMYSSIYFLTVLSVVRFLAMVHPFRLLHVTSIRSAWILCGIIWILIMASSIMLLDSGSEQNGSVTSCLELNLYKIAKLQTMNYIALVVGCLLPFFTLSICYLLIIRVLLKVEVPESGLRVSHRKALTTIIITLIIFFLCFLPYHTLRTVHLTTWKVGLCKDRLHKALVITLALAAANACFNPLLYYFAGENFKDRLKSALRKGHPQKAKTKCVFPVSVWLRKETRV

[26] = species: Homo sapiens; assay: Compound was tested for fold shift in LTD4 dose response curve following 800 microg aerosol dose in mild asthmatics.; format: functional
[27] = species: Homo sapiens; assay: Compound was tested for fold shift in LTD4 dose response curve 2 hour following 100 microg aerosol dose in normal subjects.; format: functional
[28] = Compound was tested for in vivo inhibition against antigen bronchospasm.; format: functional; details: Rattus norvegicus, Bronchiole
[29] = species: Homo sapiens; assay: Compound were tested for in vitro inhibition against human whole blood.
[30] = test system: RBL-1; assay: Compound were tested for in vitro inhibition against broken RBL-1.; format: functional; details: Rattus norvegicus
[31] = phase 1 oral half life
[32] = species: Rattus norvegicus; assay: Compound was tested for in vitro inhibition using FLAP binding assay
[33] = Compound was determined in vivo in squirrel monkey antigen bronchospasm; details: Saimiri sciureus, Bronchiole
[34] = species: Homo sapiens; assay: Compound was tested in vitro for inhibitory activity in LTB4 induced Ca mobilization.; format: functional, organism-based
[35] = species: Homo sapiens; assay: Compound was tested in vitro inhibitory activity against 12-R-HETE induced Ca mobilization; format: functional
[36] = species: Homo sapiens; assay: Compound was tested in vitro inhibitory activity against LTB4 induced neutrophil degranulation; format: functional
[37] = molecular target: T1, Leukotriene B4 receptor 1; assay: Compound was tested for binding affinity against human neutrophil LTB4 (leukotriene) receptor
[38] = test system: Mus musculus; assay: Compound was tested in vivo inhibitory activity against AA induced ear edema (topically); format: functional
[39] = test system: Mus musculus; assay: Compound was tested in vivo inhibitory activity against AA induced ear edema(orally); format: functional; details: po
[40] = test system: Mus musculus; assay: Compound was tested in vivo inhibitory activity against PMA induced ear edema; format: functional
[41] = test system: Homo sapiens; assay: Compound was tested for fold shift in LTD4 bronchoconstriction dose response curve following a 400 mg oral dose.; format: functional, Lung

With `O=C(Nc1cccc2c(=O)cc(-c3nnn[nH]3)oc12)c1ccc(OCCCCc2ccccc2)cc1` the Activity [1] was 7, the Activity [2] was 28 and the Activity [3] was 26.

`COc1ccc(/C=C/CCCCOc2ccc(C(=O)c3cccc(C(=O)O)c3)cc2CCC(=O)O)cc1` gave a pIC50 [4] of 7.13, a pIC50 [5] of 7.00 and a pIC50 [6] of 8.22. It also gave an ED50 [7] of 3 mg/kg.

With `CCCc1c(OCCCCCCc2cccc(OCCCCCC(=O)O)c2CCC(=O)O)ccc2c1OCCC2=O` the ED50 [8] was < 0.1 mg/kg and the ED50 [9] was < 1 mg/kg.

`CCCc1c(OCCCOc2cc(O)c(-c3ccc(F)cc3)cc2CC)cccc1Oc1ccccc1C(=O)O` [ETALOCIB] showed an ED50 [10] of 0.04 mg/kg, an ED50 [11] of 0.4 mg/kg and a pIC50 [12] of 7.70. The pKi [13] was 7.60 and the pIC50 [14] was 8.41.

With `COc1cc(C(=O)N(C(C)C)C(C)C)ccc1OCCCCCOc1ccc(C(=N)N)cc1` [MOXILUBANT] the pIC50 [15] was 9.52, the pIC50 [16] was 8.70 and the pIC50 [17] was 10.00. For the same compound, the pIC50 [18] was 8.62, the ED100 [19] was 300 mg and the pIC50 [20] was 8.40. For the same compound, the ED50 [21] was 1.8 mg/kg, the ED50 [22] was 1.4 mg/kg and the ED50 [23] was 4 mg/kg. The ED50 [24] was 11 mg/kg.

`O=C(O)CCS[C@H](c1ccccc1CCCCCCCCc1ccccc1)[C@@H](O)C(=O)O` [POBILUKAST] showed a Ki [25] of 5 nM, an Activity [26] of 3 and an Activity [27] of 10.

Work on `CC(C)(C)Sc1c(CC(C)(C)C(=O)[O-])n(Cc2ccc(Cl)cc2)c2ccc(OCc3ccc4ccccc4n3)cc12.[Na+]` [QUIFLAPON SODIUM] yielded an ED50 [28] of 0.16 mg/kg, a pIC50 [29] of 6.29 and a pIC50 [30] of 8.22. The T1/2 [31] was 6 h, the pIC50 [32] was 8.80 and the ED50 [33] was 0.3 mg/kg.

Work on `O=C(O)/C=C/c1nc(CSc2c(Cl)cccc2Cl)ccc1OCCc1ccccc1` [TICOLUBANT] yielded a pIC50 [34] of 8.18, a pIC50 [35] of 8.89 and a pIC50 [36] of 6.93. For the same compound, the pKi [37] was 9.10, the ED50 [38] was 20 µg and the ED50 [39] was 19 mg/kg. It also gave an ED50 [40] of 114 µg.

In the case of `CCCc1c(OCCCCc2nnn[nH]2)ccc(C(C)=O)c1O` [TOMELUKAST], the Activity [41] was 4.6.
